Measured values taken from patent publication US20190313614A1, “MRAP2 KNOCKOUTS” (EFFSTOCK, LLC, priority 2013, published 2019).

Key:
[1] = system: melanocortin receptor (Mc4r and Mc3r); assay: Food intake following saline or MTII in Mrap2+/+ vs. Mrap2−/− mice; assay type: in vivo; settings: young (age 38-45 days) Mrap2−/− mice; 2 μg/g body weight, i.p.
Text: FIG. 5A depicts images of the appearance of male and female Mrap^+/+ and Mrap2^−/− mice. Left panel: External appearance on standard chow (age 175 days). Upper right: mesenteric fat in female Mrap^+/+ and Mrap2^−/− mice (age 175 days). Lower right: Brown adipose tissue (BAT) in female Mrap^+/+ and Mrap2^−/− mice (age 175 days). FIG. 5B depicts the level of serum leptin in Mrap2^+/+ and Mrap2^−/− mice. Left panel: Mrap2^+/+ vs. Mrap2^−/− ad libitum fed male (n=4 vs. 6) and female (n=8 vs. 4) mice (ages 302-349 days). Right panel: Mrap2^+/+ vs. Mrap2^−/− food-restricted, weight-matched male (n=4 vs. 6, weight=27.4±0.6 vs. 24.8±0.2 g), and female (n=4 vs. 6, weight=21.5±0.6 vs. 20.8±0.2 g) mice (ages 135-151 days). *p=0.005, **p<0.00001. FIG. 5C depicts the level of fasting serum insulin in Mrap2^+/+ and Mrap2^−/− male (n=4 vs. 6) and female (n=6 vs. 8) mice (ages 88-194 days). There was no significant difference between genotypes of either gender. FIG. 5D depicts the results of a glucose tolerance test (intraperitoneal) in Mrap2^+/+ and Mrap2^−/− male (n=4 vs. 6) and female (n=6 vs. 8) mice (ages 88-194 days). There was no significant difference between genotypes of either gender. FIG. 5E depicts levels of blood corticosterone in morning, evening, and following 30 minutes of restraint stress in Mrap2^+/+ and Mrap2^−/− male (n=4 vs. 3) and female (n=6 vs. 7) mice (ages 124-178 days). […]

Mc3r = molecular target: T1, Mc3r (Mus musculus, UniProt P33033); assay: Effect of Mrap2 on Mc3r signaling: cAMP reporter (CRELuc) activity in transfected CHO cells; assay type: cell-based; settings: Mc3r+Mrap2 vs. Mc3r, at the two highest αMSH doses (0-10 nM, 5 h)
T1 construct: expressed in transfected cells; host or cells: CHO cells
Text: FIG. 6A depicts graphs of food intake (left panel) and body weight (right panel) in female Mrap2^flox/flox vs. Sim1^Cre: Mrap2^flox/flox mice. Sim1^Cre::Mrap2^flox/flox mice were either ad libitum-fed or pair-fed starting at age 70 days (upward arrow) to ad libitum-fed Mrap2^flox/flox mice. […] FIG. 6B depicts graphs of body weights in mice with combined knockout of Mrap2 and Mc4r. Top panels: Body weights in mixed Mrap^+/−::Mc4r^+/− genotypes (male Mrap^+/−::Mc4r^+/−, n=10; Mrap^+/+::Mc4r^+/−, n=10; Mrap^+/−::Mc4r^+/+, n=8; Mrap^+/+::Mc4r^+/+, n=9; female Mrap^+/−: Mc4r^−/−, n=9; Mrap^+/+::Mc4r^−/−, n=12; Mrap^+/−::Mc4r^+/+, n=8; Mrap^+/+::Mc4r^+/+, n=8). Bottom panels: Body weights in mixed Mrap^−/−::Mc4r^−/− genotypes (male Mrap^−/−:Mc4r^−/−, n=9; Mrap^+/+::Mc4r^−/−, n=8; Mrap^−/−: Mc4r^+/+, n=8; Mrap^+/+::Mc4r^+/+, n=9; female Mrap^−/−::Mc4r^−/−, n=7; Mrap^+/+:::Mc4r^−/−, n=8; Mrap^−/−::Mc4r^+/+, n=9; Mrap^+/+:::Mc4r^+/+, n=8). *p<0.05, **p<0.001 by ANOVA. FIG. 6C depicts the results of co-immunoprecipitation assay between Mrap2 and Mc4r. Transfection into CHO cells of Myc-tagged Mrap2 and GFP-tagged Mc4r was followed by anti-Myc immunoprecipitation and anti-GFP immunoblotting. […] Right panel: cAMP activity of these same constructs, expressed as percent induction following 0-10 nM αMSH, relative to 0 nM αMSH. *p<0.0001, Mc3r+Mrap2 vs. Mc3r at same [αMSH], by ANOVA. […]

Mc4r = molecular target: T2, Mc4r (Mus musculus, UniProt P56450); assay: Mc4r bioassay for Mrap2 effect: cAMP reporter (CRELuc) activity in transfected CHO cells; assay type: cell-based; settings: 0-10 nM αMSH, 5 h
T2 construct: expressed in transfected cells; host or cells: CHO cells (ATCC), transient transfection with pRC/CMV constructs, pCRE-Luc and pRL-TK
Text: FIGS. 3A-3C depict the interaction between Mrap2 and Mc4r. […] Top right, Cre DNA analysis by PCR. […] Molecular weight marker (M) on right (bp). Top left, Mrap2 DNA analysis in Sim1^CreBAC::Mrap2^f/f and Mrap2^f/f mice by PCR. Both genotypes contain floxed, intact Mrap2 DNA in CX, HT, and BS (314 bp in upper electropherogram, and 1013 bp in lower electropherogram, molecular weight markers on left). Only Sim1^CreBAC::Mrap2^f/f mice contain Mrap2^Del (400 bp, lower electropherogram), and only in HT and BS, but not in CX, consistent with fluorescent reporter data. No PCR products are present without added DNA (H2O). Bottom, Mrap2 mRNA expression in Sim1^CreBAC::Mrap2^f/f and Mrap2^f/f mice by RT-PCR. Both genotypes express floxed, intact Mrap2 mRNA in CX, HT, and BS (247 bp). Only Sim1^CreBAC::Mrap2^f/f mice express Mrap2^Del mRNA (147 bp), and only in HT. Global Mrap2^Del/Del mice express Mrap2^Del mRNA in all 3 sites. FIG. 3B depicts graphs of body weights of Mrap2^+/+ (male n=6, female n=11), Mrap2^−/− (male n=11, female n=7), Mrap2^f/f (male n=8, female n=12) and conditional Sim1^CreBAC::Mrap2^f/f (male n=8, female n=7) mice, all age 133 days. *p=0.04, **p=0.007, ***p=0.0002, ****p<0.0001. FIG. 3C depicts graphs of the effect of Mrap2 on Mc4r signaling. Left panel: Level of cAMP reporter activity (CRELuc) in CHO cells alone, or co-transfected with Mc4r, with or without Mrap2 or the Mrap2 knockout construct, Mrap2delE3, 5 h following exposure to 0-10 nM αMSH (n=3/group). Right panel: cAMP activity of these same constructs, expressed as percent induction following 0-10 nM αMSH, relative to 0 nM αMSH. *p<0.0001, Mc4r+Mrap2 vs. Mc4r at same [αMSH], by ANOVA. For most data points, error bars are obscured by symbols.
The coding sequences of mouse Mrap2 and Mc4r were isolated by PCR of brain cDNA (Mrap2) or genomic DNA (Mc4r) (Table S4), subcloned into TOPO-pCRII™ (Invitrogen, Carlsbad, Calif.), sequence-verified, and ligated into pRC/CMV (Invitrogen, Carlsbad, Calif.). Mrap2delE3, identical to the product of Mrap2^−/− mice, was also created and ligated into pRC/CMV. […]

T2 sequence (P56450 whole entry): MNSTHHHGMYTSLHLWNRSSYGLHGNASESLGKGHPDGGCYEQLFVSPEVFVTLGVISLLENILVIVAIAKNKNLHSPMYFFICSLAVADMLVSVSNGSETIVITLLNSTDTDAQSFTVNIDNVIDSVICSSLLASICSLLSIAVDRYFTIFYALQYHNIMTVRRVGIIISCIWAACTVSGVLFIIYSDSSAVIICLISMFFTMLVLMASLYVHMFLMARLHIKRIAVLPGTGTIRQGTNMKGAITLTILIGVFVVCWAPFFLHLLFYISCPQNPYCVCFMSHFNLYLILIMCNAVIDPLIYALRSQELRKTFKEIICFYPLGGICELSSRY
T1 sequence (P33033 whole entry): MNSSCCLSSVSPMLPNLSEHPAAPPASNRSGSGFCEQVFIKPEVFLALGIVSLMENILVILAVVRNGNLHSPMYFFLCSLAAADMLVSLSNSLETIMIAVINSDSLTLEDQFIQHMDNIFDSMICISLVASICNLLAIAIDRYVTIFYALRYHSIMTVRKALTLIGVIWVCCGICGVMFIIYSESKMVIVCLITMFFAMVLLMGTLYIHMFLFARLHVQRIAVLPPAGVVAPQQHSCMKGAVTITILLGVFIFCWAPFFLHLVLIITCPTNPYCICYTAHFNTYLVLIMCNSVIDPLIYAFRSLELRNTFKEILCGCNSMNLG

Row | Substance | anorectic response (food intake) [1] | signaling through Mc3r (cAMP reporter activity) (Mc3r) | increase above basal PKA activity (Mc4r; CHO cells co-transfected with Mc4r and Mrap2, relative to 0 nM αMSH) [fold] | increase above basal PKA activity (Mc4r; CHO cells with Mc4r alone) [fold] | increase above basal PKA activity (Mc4r; CHO cells with Mc4r plus the Mrap2 null construct Mrap2delE3) [fold]
1 | acetyl-(Nle^4, Asp^5, D-Phe^7, Lys^10)-cyclo-[…]-MSH (4-10) amide acetate salt [MTII] | intact anorectic response |  |  |  | 
2 | α-melanocyte stimulating hormone [αMSH] |  | increased signaling | 5 | < 2 | < 2
